The values below come from patent US8183394B2, “Protease inhibitor precursor synthesis” (priority 2005, dated 2012).

What all share (format): cell-based
Test [1] relates to HIV mutant strain Mutant 4. Description: cellular assay using MT4-LTR-EGFP cells for anti-viral activity, mutant 4. The note with it: Human immunodeficiency virus 1, 72 h, read-out: pEC50 Mutant 4 (converted). As for the experimental part:
(§1) The compounds were tested in a cellular assay using the MT4-LTR-EGFP cells for anti-viral activity.
(§2) The cellular assay was performed according to the following procedure. HIV- or mock-infected MT4-LTR-EGFP cells were incubated for three days in the presence of various concentrations of the compounds mentioned above. Upon infection, the viral tat protein activates the GFP reporter. At the end of the incubation period, the GFP signal was measured. In the virus control samples (in the absence of any inhibitor) the maximal fluorescent signal was obtained. The inhibitory activity of the compound was monitored on the virus-infected cells and EC50 values were calculated. These values represent the amount of the compound required to protect 50% of the cells from virus infection. The data presented in table 1 contain the pEC50 values, being the negative logarithm of the EC50-values.

Test [2] deals with HIV mutant strain Mutant 1. Description: cellular assay using MT4-LTR-EGFP cells for anti-viral activity, mutant 1. The note with it: Human immunodeficiency virus 1, 72 h, read-out: pEC50 Mutant 1 (converted). As for the experimental part:
as §1, §2

The subject of test [3] is wild type laboratory HIV strain (WT IIIB-2-001). Description: microbe, parasite or virus in culture. The note with it: Human immunodeficiency virus 1, 72 h, MT4-LTR-EGFP cells, three days incubation, GFP signal. As for the experimental part:
as §1
as §2, with “In the virus control samples (in the absence of any inhibitor) the maximal fluorescent signal was obtained.” left out

The subject of test [4] is HIV mutant strain Mutant 3. In words: cellular assay using MT4-LTR-EGFP cells for anti-viral activity, mutant 3. The note with it: Human immunodeficiency virus 1, 72 h, read-out: pEC50 Mutant 3 (converted). As for the experimental part:
as §1, §2

Test [5] has as its system HIV mutant strain Mutant 2. Description: cellular assay using MT4-LTR-EGFP cells for anti-viral activity, mutant 2. The following applies: Human immunodeficiency virus 1, 72 h, read-out: pEC50 Mutant 2 (converted). The method, then: as §1, §2

As to `CC(C)CN(C[C@@H](O)[C@H](Cc1ccccc1)NC(=O)O[C@H]1CO[C@H]2OC[C@H](OCc3ccccc3)[C@H]21)S(=O)(=O)c1ccc(N)cc1` [Compound 13, {3-[(4-amino-benzenesulfonyl)-isobutyl-amino]-1-benzyl-2-hydroxy-propyl}-carbamic acid 4-benzyloxy-hexahydro-furo[2,3-b]furan-3-yl ester], the EC50 in test [1] was 2000 nM; in test [2], 10 nM; in test [3], 1.58 nM; in test [4] it was 126 nM; in test [5], 316 nM.

For `CC(C)CN(C[C@@H](O)[C@H](Cc1ccccc1)NC(=O)O[C@H]1CO[C@H]2OCC[C@H]21)S(=O)(=O)c1ccc(N)cc1` [TMC 114, (3R,3aS,6aR)-hexahydrofuro[2,3-b]furan-3-yl N-[(1S,2R)-1-benzyl-2-hydroxy-3-(N1-isobutylsulfanilamido)propyl]carbamate, reference compound], the EC50 is 3720 nM in test [1], 8.13 nM in test [2] and 794 nM in test [5].
